{
  "source": "paper PMC11997307",
  "about": "“Rat Sarcoma (RAS)-Protein-Targeting Synthetic Cell-Penetrating Peptide as an Anticancer Biomaterial” (Biomaterials Research, 2025)",
  "key": {"[1]": {"test_system": "MDA-MB-231 cells", "assay": "Cell viability, CCK-8 assay, MDA-MB-231", "assay_type": "cell-based, human", "conditions": "MDA-MB-231 (KRAS G13D), CCK-8, 0-1,000 μM RBP, 24, 48 or 72 h, triplicate", "description": "(§1) The viability of the cells was determined via Cell Counting Kit-8 (CCK-8; Dojindo Laboratories, Kumamoto, Japan) assay. The cells were plated in 96-well culture plates at a density of 5 × 10^3 cells per well and incubated for 24 h at 37 °C in a humidified incubator with 5% CO2. […] After incubation, the medium was replaced with fresh medium containing 10% (v/v) CCK-8 reagent, and the cells were incubated for 2 h. Absorbance was measured at 450 nm using a microplate reader. All experiments were performed in triplicate."}, "[2]": {"test_system": "HT-29 cells", "assay": "Cell viability, CCK-8 assay, HT-29", "assay_type": "cell-based, human", "conditions": "HT-29 (KRAS wild-type), CCK-8, 0-1,000 μM RBP, 24, 48 or 72 h, triplicate", "description": "as §1"}, "[3]": {"test_system": "MDA-MB-231 cells", "assay": "Tumor colony forming assay", "assay_type": "cell-based, human", "conditions": "MDA-MB-231, 0, 1, 10, 50, 100 or 200 μM RBP, 5 d, crystal violet", "description": "MDA-MB-231 cells were plated in 24-well culture plates at a density of 1 × 10^3 cells per well and incubated for 24 h at 37 °C in a humidified incubator with 5% CO2. […] The cells were fixed with Carnoy’s fixative (75% methanol and 25% acetic acid) for 5 min at room temperature and stained with 0.4% crystal violet for 5 min. After staining, the cells were rinsed with distilled water, and images were taken."}, "[4]": {"test_system": "phospho-c-RAF and phospho-ERK1/2 in HT-29 cells", "assay": "Western blot of RAS-MAPK pathway, HT-29", "assay_type": "cell-based, human", "conditions": "HT-29, 10-250 μM RBP 6 h then 50 ng/ml EGF 10 min", "description": "Protein expression was confirmed via Western blot analysis. Briefly, 9 × 10^5 cells were cultured in 100-mm-diameter dishes. When they reached 90% confluence, the cells were starved for 18 h in serum-free medium. […] At the end of the culture period, the cells were lysed for 20 min in cold lysis buffer on ice. Protein concentration was measured using bicinchoninic acid protein assays (Thermo Fisher Scientific, MA, USA). Equal aliquots of protein (40 μg) were boiled for 7 min in 5× sample buffer and separated by 10% SDS–PAGE. Proteins were transferred onto nitrocellulose membranes, followed by washing with Tris-buffered saline (TBS) containing 0.1% Tween 20 (TBST). The membranes were then blocked for 60 min at room temperature with 5% skim milk in TBST. Following the washing procedure, the membranes were incubated with primary antibodies (RAS, phospho-ERK1/2, ERK1/2, phospho-RAF proto-oncogene serine/threonine-protein kinase [phospho-c-RAF; S338], c-RAF [Cell Signaling Technology, Beverly, MA, USA], and GAPDH [Santa Cruz Biotechnology, Inc., Santa Cruz, CA, USA]) diluted in TBST containing 5% skim milk at 4 °C for 18 h. […] The membranes were subsequently washed 3 more times, and protein bands were detected using chemiluminescence reagents (West Pico PLUS, Thermo Fisher Scientific, USA)."}, "[5]": {"test_system": "MDA-MB-231 cell-derived tumors", "assay": "Mouse xenograft tumor model", "assay_type": "in vivo", "conditions": "BALB/c nude mice, MDA-MB-231 xenograft", "description": "Female BALB/c nude mice (aged 5 to 6 weeks) were utilized in these studies to establish breast cancer xenograft models. These mice were obtained from Orient Bio, Inc. (Seongnam, Republic of Korea) and maintained in the Division of Laboratory Animal Resources animal facility throughout the experimental period. The selection, management, and experimental protocols, as well as the preparation of the animals, were conducted in accordance with the guidelines approved by the Institutional Animal Care and Use Committee of Seoul National University. All experiments adhered to the animal protocol approved by the Institutional Animal Care and Use Committee at Seoul National University (protocol number: SNU-171026-1-5). MDA-MB-231 cells were cultured until they reached 80% to 90% confluency and then harvested and prepared as suspensions (3 × 10^6 cells/100 μl in PBS) mixed with Matrigel. These cell suspensions were injected into the right hind flanks of nude mice (n = 8). […] The control mice received PBS injections. The mice were weighed, and their tumor volumes were measured 3 times per week using Vernier calipers, starting on the first day of treatment. The tumor volume was calculated using the formula tumor volume = A × B^2 × 0.52, where A represents the longest tumor diameter and B represents the shortest diameter. After 6 weeks, the mice were euthanized in a sealed chamber with CO2 gas for 5 to 10 min, and their solid tumors were harvested and fixed in 4% paraformaldehyde for subsequent analysis via immunohistochemistry (IHC).\nThe tissues were fixed in 4% formalin before being embedded in paraffin. Sections with a thickness of 4 μm were deparaffinized with xylene and then rehydrated with a graded series of ethanol solutions, ranging from 95% to 100%. […] Antibody binding was detected through incubation with EnVision FLEX/horseradish peroxidase (Dako) for 30 min. […] The intensity and distribution of Ki-67-specific immunostaining were assessed using a Leica DM6B digital light fluorescence microscope following hematoxylin counterstaining."}, "[6]": {"conditions": "10 mg/kg intraperitoneal, 6 weeks"}},
  "data": [
    {"molecule": "C[C@@H](O)[C@H](NC(=O)[C@H](CO)NC(=O)[C@H](CS)NC(=O)[C@H](CCCCN)NC(=O)CN)C(=O)N[C@@H](CCCNC(=N)N)C(=O)NCC(=O)N[C@@H](CCCNC(=N)N)C(=O)N[C@@H](CCCCN)C(=O)N[C@@H](CS)C(=O)N[C@@H](CS)C(=O)N[C@@H](CCCNC(=N)N)C(=O)N[C@@H](CCCNC(=N)N)C(=O)N[C@@H](CCCCN)C(=O)N[C@@H](CCCCN)C(N)=O", "note": "[RBP]", "values": [
      {"measurement": "percentage of viable cells", "setting": "[1]", "result": "reduced the percentage of viable KRAS G13D mutant cells in a dose-dependent manner"},
      {"measurement": "decrease in the percentage of viable cells", "setting": "[2]", "result": "not significant"},
      {"measurement": "colony area", "setting": "[3]", "result": "dose-dependent decrease in colony area"},
      {"measurement": "RAF activation", "setting": "[4]", "result": "did not inhibit"},
      {"measurement": "ERK1/2 phosphorylation", "setting": "[4]; n = 3", "result": "did not inhibit"},
      {"measurement": "tumor growth vs not-treated group", "setting": "[5]; 10 mg/kg intraperitoneal 3 times per week for 6 weeks, n = 8, P < 0.05", "result": "significant reduction"},
      {"measurement": "Ki-67 expression in tumor sections (IHC)", "setting": "[5]; [6]", "result": "decreased Ki-67 expression"},
      {"measurement": "immune cell infiltration in tumors (H&E)", "setting": "[5]; [6]", "result": "increased immune cell infiltration"}
    ]}
  ]
}
